Assay results reported in the supplement of paper PMC11208160.

Experiment: recombinant UMI read abundance after kanamycin selection (control-corrected) (log10(CPM+1)); higher = more efficient recombination; extreme values may be limits of the assay; sequences stand for … in AGTGCAGAGAAAATCGGCCAGTTTTCTCTGCCTGCAGTCCGCATGCCGTGGGACCCCTTGGGTTCTAACCTGTTGCCTAGATTTATGCAGCGGACTGCCTTTCTCCCAAAGTGATAAACCGG…AGGTTGGTTTCACT; site = the 11-nt donor
Description: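 Pooled E. coli donor-specificity screen for the IS621 bridge recombinase. Each library member carries a reprogrammed 11-nt donor and a full-length LE bridge RNA expressed in cis from the natural promoter, with a paired donor-binding loop (8-nt LDG + 4-nt RDG) and a target-binding loop fixed to T5. It is co-electroporated with a T5 target plasmid; recombinase is induced with 0.07 mM IPTG and recombinants are selected on kanamycin. UMIs are counted as CPM, averaged over two biological replicates and corrected by the unselected control. Molecule = full bridge RNA written as DNA, built from the T5 scaffold: LDG = donor specificity nt 1-8, RDG = reverse complement of nt 8-11.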
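Further: IS621 bridge recombinase in Escherichia coli cells against a fixed T5 target plasmid.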

| Sequence | recombinant UMI read abundance (log10) |
| --- | --- |
| ACATCTACATGGACCGGTTTTCCCGGTAATCCGTATTTGTG (site ACATTTACTCA) | 0.319 |
| ACATCTACATGGACCGGTTTTCCCGGTAATCCGTATTTGTG (site ACCTCTACTCA) | 0.0111 |
| ACATCTACATGGACCGGTTTTCCCGGTAATCCGTATTTGTG (site ACGTCTACTCA) | 0.0191 |
| ACATCTACATGGACCGGTTTTCCCGGTAATCCGTATTTGTG (site ACTTCTACTCA) | 0.371 |
| ACATCTACATGGACCGGTTTTCCCGGTAATCCGTATTTGTG (site AGATCTACTCA) | 0.00667 |
| ACATCTACATGGACCGGTTTTCCCGGTAATCCGTATTTGTG (site ATATCTACTCA) | 0.245 |
| ACATCTACATGGACCGGTTTTCCCGGTAATCCGTATTTGTG (site CCATCTACTCA) | 0.465 |
| ACATCTACATGGACCGGTTTTCCCGGTAATCCGTATTTGTG (site GCATCTACTCA) | 0.305 |
| ACATCTACATGGACCGGTTTTCCCGGTAATCCGTATTTGTG (site TCATCTACTCA) | 0.0183 |
| ACATGGTCATGGACCGGTTTTCCCGGTAATCCGTATTTGTC (site ACATGGTCTGA) | 1.81 |
| ACATTACCATGGACCGGTTTTCCCGGTAATCCGTATTTGCA (site ACAGTATCTTG) | 1.21 |
| ACATTACCATGGACCGGTTTTCCCGGTAATCCGTATTTGCA (site ACATTACCTTG) | 0 |
| ACATTATCATGGACCGGTTTTCCCGGTAATCCGTATTTGCC (site ACAGTATCTTG) | 0 |
| ACATTATCATGGACCGGTTTTCCCGGTAATCCGTATTTGCC (site ACATTATCTGG) | 2.56 |
| ACATTGACATGGACCGGTTTTCCCGGTAATCCGTATTTGCC (site ACATTGACTGG) | 2 |
| ACCACCGCATGGACCGGTTTTCCCGGTAATCCGTATTTGCG (site ACCACCGCTCG) | 0.455 |

| Sequence | recombinant UMI read abundance (log10) |
| --- | --- |
| ACCACCGCATGGACCGGTTTTCCCGGTAATCCGTATTTGCG (site CCCACCGCTCG) | 0.221 |
| ACCACCGCATGGACCGGTTTTCCCGGTAATCCGTATTTGCG (site GCCACCGCTCG) | 0 |
| ACCACCGCATGGACCGGTTTTCCCGGTAATCCGTATTTGCG (site TCCACCGCTCG) | 0.0102 |
| ACCACTCCATGGACCGGTTTTCCCGGTAATCCGTATTTGTA (site ACCACTCCTTA) | 0.852 |
| ACCAGCCCATGGACCGGTTTTCCCGGTAATCCGTATTTGAT (site ACCAGCCCTAT) | 0.0092 |
| ACCCAGACATGGACCGGTTTTCCCGGTAATCCGTATTTGGG (site ACCAAGACTCC) | 0.0107 |
| ACCCAGACATGGACCGGTTTTCCCGGTAATCCGTATTTGGG (site ACCCAGACTCC) | 0.036 |
| ACCCAGACATGGACCGGTTTTCCCGGTAATCCGTATTTGGG (site ACCGAGACTCC) | 0.00445 |
| ACCCAGACATGGACCGGTTTTCCCGGTAATCCGTATTTGGG (site ACCTAGACTCC) | 0.00599 |
| ACCCATACATGGACCGGTTTTCCCGGTAATCCGTATTTGAA (site ACCCATACTTT) | 1.34 |
| ACCCGAACATGGACCGGTTTTCCCGGTAATCCGTATTTGTC (site ACACGAACTGA) | 0 |
| ACCCGAACATGGACCGGTTTTCCCGGTAATCCGTATTTGTC (site ACCCGAACTGA) | 1.95 |
| ACCCGAACATGGACCGGTTTTCCCGGTAATCCGTATTTGTC (site ACGCGAACTGA) | 0 |
| ACCCGAACATGGACCGGTTTTCCCGGTAATCCGTATTTGTC (site ACTCGAACTGA) | 0 |
| ACCCTAGCATGGACCGGTTTTCCCGGTAATCCGTATTTGTT (site AACCTAGCTAA) | 0.0322 |
| ACCCTAGCATGGACCGGTTTTCCCGGTAATCCGTATTTGTT (site ACCCTAGCTAA) | 0 |
